Measurements as given in patent US5994569A, “Dihomo-seco-cholestanes” (Hoffmann-La Roche Inc., priority 1997, dated 1999).
pIC50: −log10 of the molar value.

Test system: IL-12 production
Test: In vitro Assay for IL-12 Inhibition (IL-12 production by THP-1 cells or human peripheral whole blood, ELISA)
Format: cell-based
Conditions: Homo sapiens, THP-1, 48 h, read-out: IC50 values for the inhibition of IL-12 production

| Compound | pIC50 |
| --- | --- |
| C=C1/C(=C\C=C2/CCC[C@]3(C)[C@@H]([C@H](C)CCCC(C)(C)O)CC[C@@H]23)C[C@@H](O)C[C@@H]1O [Calcitriol, reference compound] | 7.22 |

Same assay, conditions: THP-1 cells stimulated with SAC and huIFN-γ (1000 U/ml), or alternatively human peripheral whole blood primed with huIFN-γ then SAC; supernatants after 48 hours; IL-12 by ELISA; read-out: IC50 values for the inhibition of IL-12 production

| Compound | pIC50 |
| --- | --- |
| C=C1C(=CC=C2CCCC3(C)C2CCC3C(C)CC=CC=CC(C)(C)O)CC(O)CC1O [Example 1, (5Z,7E ,23E,24aE)-(1R,3S)-24a,24b-dihomo-9,10-seco-cholesta-5,7,10(19),23,24a-pentaene-1,3,25-triol] | 8.00 |
| C=C1/C(=C\C=C2/CCC[C@]3(C)[C@@H]([C@H](C)C/C=C/C=C/C(C)(C)O)CC[C@@H]23)C[C@H](O)C[C@@H]1O [Example 3, (5Z,7E,23E,24aE)-(1S,3S)-24a,24b-Dihomo-9,10-seco-cholesta-5,7,10(19),23,24a-pentaene-1,3,25-triol] | 7.52 |
| C=C1/C(=C\C=C2/CCC[C@]3(C)[C@@H]([C@H](C)C/C=C/C=C/C(C)(C)O)CCC[C@@H]23)C[C@@H](O)C[C@@H]1O [Example 4, (5Z,7E,23E,24aE)-(1S,3R)-17a,24a,24b-trihomo-9,10-seco-cholesta-5,7,10(19),23,24a-pentaene-1,3,25-triol] | 9.00 |
| C=C1/C(=C\C=C2/CCC[C@]3(C)C([C@H](C)C/C=C/C=C/C(C)(C)O)=CCC[C@@H]23)C[C@@H](O)C[C@@H]1O [Example 8, (5Z,7E,23E,24aE)-(1S,3R)-17a,24a,24b-Trihomo-9,10-seco-cholesta-5,7,10(19),17,23,24a-hexaene-1,3,25-triol] | 9.00 |
| C[C@H](CC=CC#CC(C)(C)O)[C@H]1CC[C@H]2/C(=C/C=C3C[C@@H](O)C[C@H](O)C3)CCC[C@]12C [Example 13a, (7E,23E)- and (7E,23Z)-(1R,3R)-24a,24b-dihomo-19-nor-9,10-seco-cholesta-5,7,23-trien-24a-yne-1,3,25-triol] | 8.00 |
| C[C@H](CC=CC#CC1(O)CCCC1)[C@H]1CC[C@H]2/C(=C/C=C3C[C@@H](O)C[C@H](O)C3)CCC[C@]12C [Example 13c, (7E,23E)- and (7E,23Z)-(1R,3R)-25-(1-hydroxy-cyclopentyl)-24a,24b-dihomo-19-nor-9,10-seco-cholesta-5,7,23-trien-24a-yne-1,3,25-diol] | 8.00 |
| C[C@H](CC=CC#CC(O)(C(F)(F)F)C(F)(F)F)[C@H]1CC[C@H]2/C(=C/C=C3C[C@@H](O)C[C@H](O)C3)CCC[C@]12C [Example 13d, (7E,23E)- and (7E,23Z)-(1R,3R)-26,26,26,27,27,27-hexafluoro-24a,24b-dihomo-19-nor-9,10-seco-cholesta-5,7,23-trien-24a-yne-1,3,25-triol] | 8.00 |
| CCC(O)(/C=C/C=CC[C@@H](C)[C@H]1CC[C@H]2/C(=C/C=C3C[C@@H](O)C[C@H](O)C3)CCC[C@]12C)CC [Example 13e, (7E,23E24aE)- and (7E,23Z,24aE)-(1R,3R)-24a,24b,26a,26b-tetrahomo-19-nor-9,10-seco-cholesta-5,7,23,24a-tetraen-24a-yne-1,3,25-triol] | 9.00 |
| C[C@H](CC=C/C=C/C1(O)CCCC1)[C@H]1CC[C@H]2/C(=C/C=C3C[C@@H](O)C[C@H](O)C3)CCC[C@]12C [Example 13f, (7E,23E,24aE)- and (7E,23Z,24aE)-(1R,3R)-25-(1-hydroxy-cyclopentyl)-24a,24b-dihomo-19-nor-9,10-seco-cholesta-5,7,23,24a-tetraen-24a-yne-1,3,25-diol] | 8.00 |
